Measured values as given in PubChem BioAssay (NCI).
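Cultured in 96-well plates, cells were exposed to test compound for 48 hours across five concentrations. TGI is the concentration that stops growth completely.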

Columns and labels:
Test in all cases: NCI anticancer screen, dose series, 48 h
[1] = test system: HOP-92 NSCLC
[2] = test system: UACC-62 melanoma
[3] = test system: SN12C renal
[4] = test system: SNB-19 CNS
[5] = test system: SNB-75 CNS
[6] = test system: OVCAR-5 ovarian
[7] = test system: RXF 393 renal
[8] = test system: IGROV1 ovarian
[9] = test system: SK-OV-3 ovarian
[10] = test system: LOX IMVI melanoma
[11] = test system: A498 renal
[12] = test system: PC-3 prostate
[13] = test system: BT-549 breast
[14] = test system: UO-31 renal
[15] = test system: OVCAR-8 ovarian
[16] = test system: HS 578T breast
[17] = test system: KM12 colon
[18] = test system: K-562 leukemia
[19] = test system: MDA-MB-435
[20] = test system: SK-MEL-2 melanoma
[21] = test system: SF-295 CNS
[22] = test system: SF-539 CNS
[23] = test system: ACHN renal
[24] = test system: OVCAR-4 ovarian
[25] = test system: TK-10 renal
[26] = test system: MDA-N
[27] = test system: MDA-MB-231 breast
[28] = test system: EKVX NSCLC
[29] = test system: MOLT-4 leukemia
[30] = test system: HOP-62 NSCLC
[31] = test system: MCF7 breast
[32] = test system: T-47D breast
[33] = test system: MALME-3M melanoma
[34] = test system: U251 CNS
[35] = test system: M14 melanoma
[36] = test system: NCI-H460 lung
[37] = test system: NCI/ADR-RES ovarian
[38] = test system: NCI-H226 lung
[39] = test system: HCT-116 colon
[40] = test system: NCI-H23 lung
[41] = test system: RPMI-8226 leukemia
[42] = test system: 786-0 renal
[43] = test system: COLO 205 colon
[44] = test system: OVCAR-3 ovarian
[45] = test system: UACC-257 melanoma
[46] = test system: SF-268 CNS
[47] = test system: HCC-2998 colon
[48] = test system: SK-MEL-5 melanoma
[49] = test system: A549 NSCLC
[50] = test system: SW-620 colon
[51] = test system: HCT-15 colon
[52] = test system: HT29 colon
[53] = test system: SK-MEL-28 melanoma
[54] = test system: DU-145 prostate
[55] = test system: CCRF-CEM leukemia
[56] = test system: NCI-H522 lung
[57] = test system: HL-60(TB) leukemia

SMILES: CC1=CC2(C)C=C[C@@H]1C(=O)[C@@]1(C)CC[C@@](O)(C(C)C)[C@H]1CC2
- TGI [1]: 28.2 µM
- TGI [2]: 45.5 µM
- TGI [3]: 39.4 µM
- TGI [4]: 65.7 µM
- TGI [5]: 58.3 µM
- TGI [6]: 34.6 µM
- TGI [7]: 43.5 µM
- TGI [8]: 51.7 µM
- TGI [9]: 54.6 µM
- TGI [10]: 39 µM
- TGI [11]: 45.6 µM
- TGI [12]: 51.9 µM
- TGI [13]: 60.7 µM
- TGI [14]: 31.4 µM
- TGI [15]: 32.6 µM
- TGI [16]: 54.9 µM
- TGI [17]: 41.7 µM
- TGI [18]: 52.1 µM
- TGI [19]: 43.2 µM
- TGI [20]: 77 µM
- TGI [21]: 38.1 µM
- TGI [22]: 35 µM
- TGI [23]: 45.9 µM
- TGI [24]: 38.2 µM
- TGI [25]: > 100 µM
- TGI [26]: 47.5 µM
- TGI [27]: 35.5 µM
- TGI [28]: 63.1 µM
- TGI [29]: 51.9 µM
- TGI [30]: 35.2 µM
- TGI [31]: 76 µM
- TGI [32]: 88 µM
- TGI [33]: 36.2 µM
- TGI [34]: 33.1 µM
- TGI [35]: 35.8 µM
- TGI [36]: 32.5 µM
- TGI [37]: 40 µM
- TGI [38]: 43.8 µM
- TGI [39]: 32.2 µM
- TGI [40]: 50.4 µM
- TGI [41]: 62 µM
- TGI [42]: 33.3 µM
- TGI [43]: 40.2 µM
- TGI [44]: 32.2 µM
- TGI [45]: 34.1 µM
- TGI [46]: 57.1 µM
- TGI [47]: 34.6 µM
- TGI [48]: 34 µM
- TGI [49]: > 100 µM
- TGI [50]: 37.7 µM
- TGI [51]: 55.8 µM
- TGI [52]: 32.6 µM
- TGI [53]: 41.7 µM
- TGI [54]: 72.1 µM
- TGI [55]: 53.4 µM

SMILES: CN1N=C(c2ccncc2)OC1c1cccc(F)c1 (centres undefined)
- TGI [2]: > 100 µM
- TGI [3]: > 100 µM
- TGI [4]: > 100 µM
- TGI [5]: > 100 µM
- TGI [6]: > 100 µM
- TGI [7]: > 100 µM
- TGI [8]: > 100 µM
- TGI [9]: > 100 µM
- TGI [10]: > 100 µM
- TGI [11]: > 100 µM
- TGI [12]: > 100 µM
- TGI [14]: > 100 µM
- TGI [15]: > 100 µM
- TGI [16]: > 100 µM
- TGI [17]: > 100 µM
- TGI [18]: > 100 µM
- TGI [19]: > 100 µM
- TGI [20]: > 100 µM
- TGI [21]: > 100 µM
- TGI [22]: > 100 µM
- TGI [23]: > 100 µM
- TGI [24]: > 100 µM
- TGI [56]: > 100 µM
- TGI [25]: > 100 µM
- TGI [26]: > 100 µM
- TGI [27]: > 100 µM
- TGI [28]: > 100 µM
- TGI [29]: > 100 µM
- TGI [30]: > 100 µM
- TGI [31]: > 100 µM
- TGI [32]: > 100 µM
- TGI [34]: > 100 µM
- TGI [35]: > 100 µM
- TGI [36]: > 100 µM
- TGI [37]: > 100 µM
- TGI [38]: > 100 µM
- TGI [39]: > 100 µM
- TGI [40]: > 100 µM
- TGI [41]: > 100 µM
- TGI [42]: > 100 µM
- TGI [43]: > 100 µM
- TGI [44]: > 100 µM
- TGI [45]: > 100 µM
- TGI [57]: > 100 µM
- TGI [46]: > 100 µM
- TGI [47]: > 100 µM
- TGI [48]: > 100 µM
- TGI [49]: > 100 µM
- TGI [50]: > 100 µM
- TGI [51]: > 100 µM
- TGI [52]: > 100 µM
- TGI [53]: > 100 µM
- TGI [54]: > 100 µM
- TGI [55]: > 100 µM
